A word on the IC50: it is the concentration needed to halve the response being measured. Broadly, the inhibition is the change of the read-out against control, counted positive when it falls. For orientation: Papp A→B means the apparent permeability from the apical to the basolateral side of a cell layer. Low values mean slow passage, high ones fast passage. By Papp B→A is commonly meant how fast a substance crosses the layer from the basolateral side. In general, AUC(0-inf) refers to the area under the concentration-time curve extrapolated to infinity. Low readings indicate less exposure, high ones more exposure. For orientation: Cmax means the highest concentration seen after dosing. As usually defined, the Vd is the apparent volume that relates the amount in the body to the concentration in plasma or blood. A lower Vd goes with little distribution into tissue. Broadly, the solubility is the concentration that dissolves in the medium under given conditions.

Three compounds from patent US20130059879A1, “Small Molecule Inhibitors of PFKFB3 and Glycolytic Flux and Their Methods of Use as Anti-Cancer Therapeutics” (UNIVERSITY OF LOUISVILLE RESEARCH FOUNDATION, INC., priority 2010, published 2013) can be followed below.

For data set [1], the system named is Calu-6. Nature of the data set: Cancer cell proliferation, Alamar Blue assay, 72 hours. The class given is cell-based. Conditions: Homo sapiens, Calu-6. On the procedure:
(§1) The ability of the compounds described herein to kill or inhibit the proliferation of cancer cells was measured using either the MTT assay, or the Alamar Blue assay, or the Cell Titer Glow® assay using 48 or 72 hours exposure. […] The procedures are briefly described below. Cells of the desired tumor cell line were plated at 2×10^5 cells/ml in 96 well plates. Twice the indicated concentrations of the compounds of the invention were added to cells the following day in an equal volume of media. 72 hours later, cells were lysed and subjected to ATP determination using the CellTiter Glo-Luminescent Cell Viability Assay kit (Promega, Madison, Wis.). Experiments were done in triplicate. When using the MTT assay or the Alamar blue assay, the experimental conditions are essentially similar; at the end of the incubation period, 20 microliters of the MTT solution is added per well and the samples are incubated for an additional four hours, rinsed, and the absorbance at 570 nm measured. […] Table 2 lists the IC50 values for the compounds of the invention in several cell lines including Jurkat, Calu-6, NCI-H82, U937, HCT-116, and MDA-MB-231 cancer cell lines.
(The colour change of resazurin is a common sign of viable cells or microbes.)

Data set [2] relates to HCT-116. The description is as above. Format: cell-based. Conditions: Homo sapiens, HCT-116. As to the method: as §1
Data set [3] concerns Jurkat. The data set is described as above. Format: cell-based. Conditions: Homo sapiens, Jurkat. On the procedure: as §1
The subject of data set [4] is MDA-MB-231. Described as above. Format: cell-based. Conditions: Homo sapiens. As to the method: as §1
Data set [5] relates to NCI-H82. Described as above. Conditions: Homo sapiens, NCI-H82, read-out: IC50 NCl-H82. The class given is cell-based. As to the method: as §1
The test system of data set [6] is U937. The data set is described as above. The class given is cell-based. The note with it: Homo sapiens, U-937. On the procedure:
as §1

Data set [7] deals with T1, PFKFB3 (Homo sapiens, UniProt Q16875).
T1 construct: GST
In words: Inhibition of recombinant PFKFB3 kinase activity (ADP Glow assay). Conditions: 250 nM analog concentration; read-out: % Inhibition of PFKFB3 Enzymatic Activity. The class given is biochemical. As to the method: PFKFB3 was prepared by expression in E. coli and purified by GST column and column chromatography. […] The recombinant protein was pure and active as determined by the results of a kinase activity assay commercially available (such as ADP Glow® assay, […]). The same assay was used to determine the inhibition of the protein and the results are shown in Table 5 below (IC50 values or percent inhibition at a fixed concentration). Results confirmed that the compounds of the invention have low nanomolar IC50 values, interacting with PFKFB3 and inhibiting its enzymatic activity.

A short description of data set [8]: Microsomal stability in human liver microsomes. The class given is in vitro ADME. As to the method:
Microsomal stability in vitro in different biologic media (liver microsomes, S9 fraction, hepatocytes) and species is ascertained to evaluate the rate at which a compound undergoes metabolism in the experimental in vitro conditions. Results for some compounds of the invention after a 60 minutes incubation period in human liver microsomes are shown in the Table 6 below. […] Experimental conditions are briefly described here: the stability in human liver microsomes of several compounds was done over […] at 37° C. using pooled mixed gender human liver microsomes. These liver microsomes were prepared at 1.0 mg/ml of microsomal protein in a 100 mM potassium phosphate pH 7.4 buffer with 1 mM NADPH. The media was incubated at 37° C. with the compound in solution in DMSO. The concentration of the compound was followed by LC/MS-MS as a function of time. Samples were assayed at t=0, 15, 30, and 60 minutes. Testosterone was used as a positive control. The same experiment was performed with mouse, rat or dog liver microsomes instead of human liver microsomes.
(Liver microsomes are vesicles of endoplasmic reticulum, rich in cytochrome P450 enzymes.)

The nature of data set [9]: Cell permeability in Caco2 monolayers. The class given is in vitro ADME. Conditions: human, Caco-2, Caco2 cells, pH 7.4. The text has this:
The determination of the permeability in Caco2 or MDR1-MDCK cells is widely used when screening compounds to assess cell permeability, intestinal drug transport and predict absorption rates and to ascertain if a compound might be a Pgp substrate and have cross the blood brain barrier. […] Comparison of the apical to basal (A-B) and basal to apical (B-A) values show if a compound is actively effluxed out the cells and if it is a Pgp substrate. […] Briefly, cell permeability and transport mechanisms in Caco-2 and MDR1-MDCK monolayers experiments were performed in triplicate in the apical-to-basolateral and basolateral-to-apical direction using Transwell wells containing either Caco-2 or MDR1-MDCK monolayers. A modified Hanks buffer pH 7.4 was used in both reservoir and receiver wells with the addition of 1% BSA in the receiver side. Confluent monolayers were used and their integrity was verified using reference compounds (Atenolol as a low permeability reference compound and Propanolol as a high permeability reference compound). A sample in the basolateral and apical sides was taken after 2 hours and the concentration measured by LC/MS-MS.
(Caco-2 monolayers are a common model of the intestinal barrier.)

The nature of data set [10]: Pharmacokinetics in mice. The class given is in vivo, Balbc mice. On the procedure:
The pharmacokinetic parameters for several compounds were determined in mice following IV (intravenous), IP (intraperitoneal), or PO (per os) administration, as well as in rats and dogs. A typical study design includes six Balbc male mice 7 to 8 weeks old. For instance, a dose of 10 mg/kg was administered IV using a 5% DMS0/90% Captisol (20% in water) solution or other pharmaceutically acceptable parenteral and oral formulations. Blood samples were collected at different intervals. Plasma samples were extracted and analyzed using an LC-MS/MS method. Similar protocols were used for the rats (Sprague Dawley rats) or dogs (beagles) PK studies; in the case of dogs PK studies, the number of animals per group was three.
PFK-065 was dosed at 10 mg/kg in male Balbc mice; PFK-095 was dosed at 10 mg/kg in male Sprague Dawley rats; and PFK-112 dosed at 6 mg/kg in male beagle dogs.

Data set [11] can be described thus: Solubility in solvents and excipients, 1 hour at room temperature, HPLC. The class given is physicochemical. Conditions: thermodynamic from solid. As to the method: Chemical properties of the compounds of the invention were investigated, including the solubility in several solvents and pharmaceutically accepted excipients. […] Briefly, selected compounds of the invention are dissolved in a small volume of the solvents/excipients of interest at room temperature over 1 hour in typically 1 ml and the concentration is measured by HPLC after filtration.

For data set [12], the system named is Jurkat cells. Nature of the data set: Inhibition of 14C-2-deoxyglucose uptake. Format: cell-based. Conditions: Homo sapiens, 3 hours. As to the method: Inhibition of PFKFB3 results in inhibiting glycolysis. Several feedback or feedforward activation and inhibition mechanisms exist so that, by a feedback mechanism, inhibiting the activity of PFKFB3 may inhibit glucose uptake by cells. An assay was developed to determine if there was inhibition of glucose uptake following exposure to the compounds on the invention. Briefly, Jurkat cells were plated at 1×10^5/mL in RPM′ 1640 supplemented with 10% fetal bovine serum and 50 μg/mL gentamicin sulfate. Cells were immediately treated with vehicle or 5 μmol/L of the compound of the invention for 3 hours and subsequently placed in glucose-free RPMI 1640 for 30 min. ^14C-2-deoxyglucose (0.25 μCi/mL; Perkin Elmer) was added for an additional 60 min and cells were then washed three with ice-cold RPMI 1640 containing no glucose. Cell lysates were collected in 500 μL of 0.1% SDS, and scintillation counts (counts/min) were measured on 400 μL of lysate. Counts were normalized to protein concentration.

The mark [13] stands for this setting: 60 min incubation, 1.0 mg/ml microsomal protein, 1 mM NADPH, 37° C.
[14] abbreviates: mouse, plasma, IV 10 mg/kg, male Balbc mice.
Setting [15] is: aqueous with cosolvent or surfactant or cyclodextrin, Cre:EtOH:Saline 5:5:90 mixture, 1 hour at room temperature, read-out: Solubility Cre:EtOH:Saline.
[16] abbreviates: ethanol, organic solvent or mixture, EtOH, 1 hour at room temperature, read-out: Solubility EtOH.
The mark [17] stands for this setting: organic solvent or mixture, 1:1 cremophor EL-P:ethanol mixture, 1 hour at room temperature, read-out: Solubility Cre:EtOH.
The mark [18] stands for this setting: organic solvent or mixture, Acetone, 1 hour at room temperature, read-out: Solubility Acetone.
[19] abbreviates: organic solvent or mixture, Cremophor, 1 hour at room temperature, read-out: Solubility Cremophor.
Where [20] appears, read: organic solvent or mixture, DCM, 1 hour at room temperature, read-out: Solubility DCM.
Setting [21] is: organic solvent or mixture, Tween 80, 1 hour at room temperature, read-out: Solubility Tween 80.
Where [22] appears, read: organic solvent or mixture, Tween80:EtOH 6:4 mixture, 1 hour at room temperature, read-out: Solubility Twee80:EtOH.

Converted amounts (≈) assume the structure as drawn. Like-named read-outs stand apart in the source and are kept apart here.

T1 sequence (Q16875 whole entry, species assumed): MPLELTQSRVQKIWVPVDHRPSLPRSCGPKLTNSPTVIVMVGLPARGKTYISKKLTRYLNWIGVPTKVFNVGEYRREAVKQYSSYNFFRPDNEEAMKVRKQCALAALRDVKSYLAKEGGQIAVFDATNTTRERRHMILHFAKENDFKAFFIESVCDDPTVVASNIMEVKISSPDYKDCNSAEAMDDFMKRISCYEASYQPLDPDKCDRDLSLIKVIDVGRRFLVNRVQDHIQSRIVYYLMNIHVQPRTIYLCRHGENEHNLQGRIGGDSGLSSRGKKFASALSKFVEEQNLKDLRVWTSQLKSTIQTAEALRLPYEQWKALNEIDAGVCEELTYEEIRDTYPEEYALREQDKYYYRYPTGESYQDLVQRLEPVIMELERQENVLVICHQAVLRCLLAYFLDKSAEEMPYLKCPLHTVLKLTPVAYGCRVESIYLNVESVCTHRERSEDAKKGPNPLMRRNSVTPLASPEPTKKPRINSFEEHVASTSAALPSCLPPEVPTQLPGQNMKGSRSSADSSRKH

Consider `O=C(c1ccccc1)c1cc2c(ccc3ccccc32)[nH]1` [ACT-PFK-065, (3H-Benzo[e]indol-2-yl)-phenyl-methanone], for which the IC50 in data set [1] came to 267 nM; in data set [2], 1310 nM; in data set [3] it was 775 nM; in [4] it was 625 nM; in data set [5], 283 nM; in data set [6], 165 nM. Further, the inhibition at 0.25 µM in data set [7] came to 13.5%. For the same compound, the entries for the “HLM, Mean metabolized (%)” value in [8] (0 min) and in [8] (setting [13]) were 0.0% and 93%, respectively. In data set [9] (apical to basal), this compound displayed an apical-to-basolateral permeability (Papp A→B) at 2 h of 10.3 ×10⁻⁶ cm/s. Also, the apparent permeability from basolateral to apical (Papp B→A) at 2 h in [9] (basal to apical) was 5.9 ×10⁻⁶ cm/s. The compound further returned a T1/2b in [10] (IV 10 mg/kg, male Balbc mice) of 2.1 h. Besides, the AUC(0-inf) in data set [10] (setting [14]) worked out at 2630 ng·h/mL. In [10] (setting [14]), this compound came in with a maximum concentration (Cmax) of 4110 ng/mL. This compound registered a volume of distribution (Vd) in data set [10] (setting [14]) of 11.2 L/kg. For the same compound, the “% F (from PO group)” value in data set [10] (oral bioavailability, Balbc mice, PO 20 mg/kg vs IV 10 mg/kg) is 25%.
In the case of `COc1cccc(C(=O)c2cc3c(ccc4ccccc43)[nH]2)c1` [ACT-PFK-096, (3H-Benzo[e]indol-2-yl)-(3-methoxy-phenyl)-methanone], the IC50 in data set [1] was determined as 20 nM; in data set [2], 695 nM; in [3] it was 1500 nM; in data set [5], 155 nM; in data set [6], 14 nM. For the same compound, the inhibition at 0.25 µM in data set [7] is 0%. In addition, the “HLM, Mean metabolized (%)” value is 0.0% in data set [8] (0 min) and 99% in [8] (setting [13]). Further, the solubility at 1 h in [11] (setting [15]) was found to be 1700 µg/mL (≈ 5.64 mM); in data set [11] (setting [16]), 2800 µg/mL (≈ 9.29 mM); in data set [11] (setting [17]), 29700 µg/mL (≈ 98.6 mM); in data set [11] (setting [18]), 25800 µg/mL (≈ 85.6 mM); in [11] (setting [19]) it was 1200 µg/mL (≈ 3.98 mM); in [11] (setting [20]), 8900 µg/mL (≈ 29.5 mM). Besides, the solubility at 1 h in data set [11] (setting [21]) came out at 1800 µg/mL (≈ 5.97 mM); in [11] (setting [22]), 18700 µg/mL (≈ 62.1 mM). This compound also had an inhibition at 5 µM in data set [12] of 29%.
For the compound `COc1cccc(C(=O)c2cc3c(cc(F)c4ccccc43)[nH]2)c1` [ACT-PFK-116, (5-Fluoro-3H-benzo[e]indol-2-yl)-(3-methoxy-phenyl)-methanone], the half-inhibitory concentration (IC50) worked out at 80 nM in [1]; 235 nM in [2]; 125 nM in data set [3]; 563 nM in data set [4]; 205 nM in data set [5]; 30 nM in data set [6]. The inhibition at 0.25 µM in data set [7] amounted to 34.2%. Besides, the figures for the “HLM, Mean metabolized (%)” value in [8] (0 min) and in [8] (setting [13]) were 0.0% and 45.8%, respectively. For the same compound, the solubility at 1 h in [11] (setting [15]) came to 700 µg/mL (≈ 2.19 mM); in [11] (setting [16]), 1300 µg/mL (≈ 4.07 mM); in [11] (setting [17]), 8600 µg/mL (≈ 26.9 mM); in [11] (setting [18]), 6200 µg/mL (≈ 19.4 mM); in [11] (setting [19]) it was 14400 µg/mL (≈ 45.1 mM); in data set [11] (setting [20]) it was 6000 µg/mL (≈ 18.8 mM). Moreover, the solubility at 1 h in [11] (setting [21]) came out at 15500 µg/mL (≈ 48.5 mM); in data set [11] (setting [22]), 10200 µg/mL (≈ 31.9 mM). This compound yielded an inhibition at 5 µM in [12] of 0%.
